Measurements from patent publication US20210379153A1, “COMBINATION THERAPIES COMPRISING SIRP ALPHA-BASED CHIMERIC PROTEINS” (Shattuck Labs, Inc., priority 2018, published 2021).

Experiments:
[1] = test system: IFNα1, IFNβ1, CD80 and CD86 expression in macrophages; assay: qRT-PCR of macrophages sorted from macrophage:Toledo lymphoma co-cultures; format: cell-based, human; design: macrophage activation and type I interferon gene expression: dose or concentration left out as unconfirmed
Method: FIG. 8D: Macrophage:Toledo lymphoma co-cultures were harvested 2 hours into phagocytosis assays in the presence of rituximab ([…]), SIRPα-Fc-CD40L ([…]), or the combination of both agents. Macrophages were isolated by CD11b+ FACS, RNA was prepared, cDNA synthesized, and gene expression (IFNa1, IFNb1, CD80, and CD86) assessed by qRT-PCR. Fold change was calculated using DDCT and values obtained from the housekeeping gene ACTB, and the corresponding values from untreated samples. […] After 2 hours, co-cultures were isolated from tissue culture vessels and were stained with a fluorescently conjugated CD11b antibody to discriminate macrophages. Cells were then assessed by flow cytometry for the co-localization of fluorescent signal from both cells types. Identical assays were set up where macrophages were pre-incubated for 1 hour with 20 μg/mL of a commercially available Fc block cocktail or with 20 μg/mL of a CD40 blocking antibody or with 5 μg/mL of a calreticulin blocking peptide. FIG. 8G: RAW 264.7-Lucia ISG cells were cultured with A20 lymphoma cells in the presence of […] of mSIRPα-Fc-CD40L, recombinant Fc-mCD40L, mSIRPα-Fc, or their combination, 1 mg/mL anti-mCD20, or the combination of mSIRPα-Fc-CD40L and anti-mCD20. After 24-hours type I interferon induced luminescence was assessed using a luminometer. The maximum luminescence (RLU) from each experiment was set to 1, and all other samples were normalized accordingly. Values from repeat experiments are shown.
RNA was prepared from macrophages isolated using fluorescent activated cell sorting (FACS) from SIRPα-Fc-CD40L/Rituximab treated co-cultures macrophages and Toledo lymphoma cells. The RNA was assessed by qRT-PCR for expression of IFNα1 and IFNβ1, and the macrophage activation markers CD80 and CD86.

[2] = test system: A431 (high EGFR-expressing skin cancer cell line); assay: Macrophage engulfment of A431 cells; format: cell-based, human; details: combination with anti-EGFR antibody (cetuximab); vs low EGFR-expressing tumor cells
[3] = test system: K562 (low EGFR-expressing CML cell line); assay: Macrophage engulfment of K562 cells; format: cell-based, human
CT26 tumor = CT26 tumor model, order of administration with anti-CTLA-4 or anti-PD-1 (Example 10); format: in vivo, mice
CT26 tumors = assay: Syngeneic CT26 colon tumor model vs CD40 agonist and CD47 blocking antibodies (Example 11); format: in vivo, mice
From the text: Mice were inoculated with CT26 tumors on day 0 and treated at a later starting date than FIG. 20A with mSIRPα-Fc-CD40L ARC on days 7, 9, and 11. […] In FIG. 20D and FIG. 20E, BALB/C mice were inoculated with WEHI3 tumors (FIG. 20D) or A20 tumors (FIG. 20E) subcutaneously on the rear flank, and then treated via IP injection with anti-CD20 or mSIRPα-Fc-CD40L on days 7, 9, and 11 (WEHI3) or days 10, 12, and 14 (A20); when tumors were established and reached approximately 57-60 mm^3. A cohort of mice were pre-treated with an interferon alpha receptor 1 (IFNAR1) blocking antibody ([…] by IP injection) on days −1, 1, and 10 (WEHI3) or on days −1, 1, and 13 (A20). […] Samples were normalized to untreated animals.
Implanted CT26 tumors were allowed to grow to […] before treatment was initiated with a fixed regimen of two doses of either a CD40 agonist antibody (clone FGK4.5), a CD47 blocking antibody (clone MIAP301), a combination of the two antibodies, or the murine SIRPα-Fc-CD40L chimeric protein.

[4] = test system: human donor red blood cells (RBCs); assay: In vitro hemolysis assay, human red blood cells; format: cell-based
Method: FIG. 22B is a graph showing RBCs and test agents that were incubated at 37° C. for 24 hours and then the media was assessed at OD490 for changes in absorbance due to hemoglobin being released from lysing RBCs. […] FIG. 22D are graphs showing that peripheral blood was isolated from mice receiving three IP doses (300 μg) of the murine SIRPα-Fc-CD40L surrogate (arrows). Cell populations were assessed by flow cytometry and included CD20+ B cells, CD110+, CD4+/CD11c+, and CD8+/CD11c+ dendritic cells.
However, the in vitro systems used to test this question have significant limitations, including a complete lack of macrophages in the test system.

[5] = Repeat-dose safety and activity study in cynomolgus macaques; format: in vivo
Method: FIG. 21 is a graph showing cynomolgus macaques that were treated with vehicle, or 0.1, 1, 10, and 40 mg/kg of SIRPα-Fc-CD40L. Blood chemistry analysis assessed peripheral erythrocyte counts, hemoglobin levels, and hematocrit. In addition, the fold-change in lymphocyte count from pre-dose to 24 hours post-dose is shown.
The experiments of this example tested the safety and activity of the human SIRPα-Fc-CD40L chimeric protein following repeat doses in cynomolgus macaques. Briefly, naïve cynomolgus macaques were administered the human SIRPα-Fc-CD40L chimeric protein by intravenous infusion every week, for five consecutive weeks, at doses of 0.1, 1, 10 and 40 mg/kg. Standard hematology and clinical chemistry parameters were collected before and after each dose.
Receptor occupancy was evaluated on circulating CD40+ lymphocytes.

tumors [6] = assay: In vivo tumor model, SIRPα-Fc-OX40L with checkpoint antibodies (Example 14); design: species or system mice
Method: The in vivo ability of combinations of the SIRPα-Fc-OX40L chimeric protein with anti-CTLA-4 antibodies or the SIRPα-Fc-OX40L chimeric protein with anti-PD-1 antibodies to target and treat tumors was determined.

tumors [7] = assay: In vivo tumor model, SIRPα-Fc-LIGHT with anti-PD-1 (Example 15); design: species or system mice; details: combination with anti-PD-1 antibody
Method: The in vivo ability of combinations of the SIRPα-Fc-LIGHT chimeric protein with anti-PD-1 antibodies to target and treat tumors was determined. (FIG. 26A and FIG. 26B) FIG. 26C and FIG. 26D include data relevant to the graphs of FIG. 26A and FIG. 26B.

[8] = combination with anti-CTLA-4 antibody
[9] = combination with anti-PD-1 antibody

Substance: SIRPα-Fc-CD40L: generic name of the SIRPαECD-Fc-CD40LECD chimeric protein; human or murine version according to the experiment
- induction of type I interferon genes ([1]; combination with rituximab): enhanced
- macrophage activation and type I interferon gene expression ([1]; monotherapy, 2 hours): induced macrophage activation and the expression of type I interferon genes
- macrophage engulfment of tumor cells [2]: more effective
- phagocytic activity ([3]; combination with cetuximab): no phagocytic activity
- phagocytic activity ([3]; monotherapy): no phagocytic activity
- treatment outcome (tumor size, survival) (CT26 tumor; anti-CTLA-4 antibody administered before the chimeric protein): greatest treatment outcome
- treatment outcome (tumor size, survival) (CT26 tumor; anti-PD-1 antibody administered with the chimeric protein): greatest treatment outcome
- treatment outcome / tumor control (CT26 tumor; chimeric protein administered before or after the anti-PD-1 antibody): less great treatment outcome
- treatment outcome / tumor control (CT26 tumor; chimeric protein administered before the anti-CTLA-4 antibody): less great treatment outcome
- proportion of AH1-tetramer positive CD8+ T cells in tumor and spleen (CT26 tumors; 13 days following tumor inoculation): increase in the proportion
- therapeutic benefit with CD4 depletion (CT26 tumors; antibody-mediated depletion of CD4+ cells): partially required
- therapeutic benefit with CD8 depletion (CT26 tumors; antibody-mediated depletion of CD8+ cells): completely eliminated the therapeutic benefit
- hemolysis [4]: did not reveal evidence of hemolysis
- total number of lymphocytes (episodic fluctuation) ([5]; before and after each dose): did not depart from the upper and lower range of normal
- number of CD40+ cells in the peripheral blood ([5]; cynomolgus monkey, in vivo): dose-dependent decrease
- serum cytokines/chemokines (CCL2, CXCL9, CXCL10, IL-6, IL-15, IL-17A, IL-23) ([5]; following each infusion): dose-dependent increases
- rejection of primary tumor (tumors [6]; combination of chimeric protein and antibody): able to reject primary tumor
- survival (tumors [6]; [8]): any survivors by the sixteenth day
- tumor size (tumors [6]; [8]): effective in reducing tumor size
- survival (tumors [6]; [9]): any survivors by the sixteenth day
- tumor size (tumors [6]; [9]): effective in reducing tumor size
- rejection of primary tumor (tumors [7]): able to reject primary tumor
